Test results as given in US20250101023A1, “HETEROARYL DERIVATIVE AND USES THEREOF” (IUCF-HYU (INDUSTRY-UNIVERSITY COOPERATION FOUNDATION …, priority 2022, published 2025).

Tests used:
SK-Br3 cells = test: Breast cancer growth inhibitory activity (Cell-titer Glo, 72 h); type: cell-based; settings: Homo sapiens, SK-BR-3; 72 hours; read-out: SK-Br3 (GI50/μM)
Description: (§1) Breast cancer cells in a culture solution (100 μL volume/well, 2,500 SK-Br3 cells/well, 1,000 HCC-1954 cells/well) were seeded into a tissue culture-treated 96-well plate and cultured in a cell incubator for 24 hours. […] Cell-titer Glo™ reagent (50 μL of a 5-fold diluted solution, Promega) was added to each well, and luminescence signals were measured using an Envision™ plate reader (PerkinElmer, USA). Titration curve fitting and IC50 values were generated using Prism 7.0 s/w (GraphPad, San Diego, USA).

CDK12/CyclinK = CDK12/CyclinK (Homo sapiens (Human), UniProt Q9NYV4); test: CDK12/cyclinK enzyme activity; type: biochemical; settings: in vitro
HCC1954 cells = test: Breast cancer growth inhibitory activity (Cell-titer Glo, 72 h); type: cell-based; settings: Homo sapiens, 72 hours, read-out: HCC1954 (GI50/μM)
Description: as §1

Chain of CDK12/CyclinK (Q9NYV4 whole entry): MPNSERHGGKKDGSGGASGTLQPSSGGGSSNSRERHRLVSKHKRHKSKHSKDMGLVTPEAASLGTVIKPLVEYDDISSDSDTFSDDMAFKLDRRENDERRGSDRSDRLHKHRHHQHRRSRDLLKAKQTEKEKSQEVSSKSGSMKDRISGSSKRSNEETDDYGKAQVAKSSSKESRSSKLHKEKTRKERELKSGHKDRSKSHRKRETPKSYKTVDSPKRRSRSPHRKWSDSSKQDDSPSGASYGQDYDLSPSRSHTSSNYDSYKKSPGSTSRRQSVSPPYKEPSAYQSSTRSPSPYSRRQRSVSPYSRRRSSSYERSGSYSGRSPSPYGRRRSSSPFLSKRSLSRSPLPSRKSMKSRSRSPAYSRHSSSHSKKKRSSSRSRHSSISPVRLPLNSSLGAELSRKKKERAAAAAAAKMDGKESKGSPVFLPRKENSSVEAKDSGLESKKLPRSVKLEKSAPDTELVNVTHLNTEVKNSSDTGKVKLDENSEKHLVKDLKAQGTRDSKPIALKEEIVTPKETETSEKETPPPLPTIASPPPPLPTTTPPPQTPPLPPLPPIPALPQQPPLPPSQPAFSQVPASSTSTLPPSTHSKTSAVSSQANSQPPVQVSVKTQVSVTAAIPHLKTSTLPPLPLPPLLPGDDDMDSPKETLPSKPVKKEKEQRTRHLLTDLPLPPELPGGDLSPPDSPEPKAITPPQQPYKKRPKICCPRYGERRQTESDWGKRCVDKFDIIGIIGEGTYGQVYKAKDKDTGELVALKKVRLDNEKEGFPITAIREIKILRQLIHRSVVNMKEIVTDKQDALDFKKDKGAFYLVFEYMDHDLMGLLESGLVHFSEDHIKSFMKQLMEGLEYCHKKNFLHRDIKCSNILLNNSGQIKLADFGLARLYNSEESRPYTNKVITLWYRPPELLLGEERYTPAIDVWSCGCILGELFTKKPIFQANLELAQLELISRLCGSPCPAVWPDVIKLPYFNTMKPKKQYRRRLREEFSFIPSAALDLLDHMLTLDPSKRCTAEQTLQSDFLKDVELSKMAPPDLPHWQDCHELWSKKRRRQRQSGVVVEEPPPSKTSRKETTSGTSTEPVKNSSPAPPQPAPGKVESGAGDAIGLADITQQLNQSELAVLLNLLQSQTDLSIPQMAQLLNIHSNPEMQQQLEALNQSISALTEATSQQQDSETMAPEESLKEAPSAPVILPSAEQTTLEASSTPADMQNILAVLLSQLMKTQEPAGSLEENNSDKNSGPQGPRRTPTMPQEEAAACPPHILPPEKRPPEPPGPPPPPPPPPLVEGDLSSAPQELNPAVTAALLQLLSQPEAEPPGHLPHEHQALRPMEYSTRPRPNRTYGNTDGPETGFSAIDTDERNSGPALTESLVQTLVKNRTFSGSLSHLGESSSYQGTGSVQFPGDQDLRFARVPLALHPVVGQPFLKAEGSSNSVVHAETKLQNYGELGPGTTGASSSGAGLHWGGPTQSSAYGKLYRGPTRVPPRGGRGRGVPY
Chain of CDK12/CyclinK (O75909 whole entry partner): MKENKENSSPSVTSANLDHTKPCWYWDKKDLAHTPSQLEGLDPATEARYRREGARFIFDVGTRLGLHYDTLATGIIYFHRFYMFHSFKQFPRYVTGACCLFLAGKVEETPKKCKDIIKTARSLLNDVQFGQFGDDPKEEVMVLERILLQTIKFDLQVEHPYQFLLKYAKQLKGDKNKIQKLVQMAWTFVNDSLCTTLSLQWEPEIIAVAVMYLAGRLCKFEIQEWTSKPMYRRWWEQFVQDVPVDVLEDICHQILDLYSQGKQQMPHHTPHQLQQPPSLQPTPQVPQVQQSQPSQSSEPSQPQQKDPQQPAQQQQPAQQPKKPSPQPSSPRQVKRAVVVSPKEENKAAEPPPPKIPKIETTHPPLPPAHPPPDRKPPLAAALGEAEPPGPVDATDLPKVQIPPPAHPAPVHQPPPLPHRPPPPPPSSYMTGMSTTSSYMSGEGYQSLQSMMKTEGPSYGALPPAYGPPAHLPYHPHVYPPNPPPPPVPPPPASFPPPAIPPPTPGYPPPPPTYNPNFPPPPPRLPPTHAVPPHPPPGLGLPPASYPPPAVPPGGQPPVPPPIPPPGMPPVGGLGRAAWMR

Row | SMILES | GI50 (SK-Br3 cells) [µM] | IC50 (CDK12/CyclinK) [µM] | GI50 (HCC1954 cells) [µM]
1 | CC(C)n1cnc2c(NCc3ccc(-c4cccnc4)nc3)nc(-c3ccnc(NCCO)c3)nc21 [Example 37, 2-((4-(6-(([2,3′-bipyridin]-5-ylmethyl)amino)-9-isopropyl-9H-purin-2-yl)pyridin-2-yl)amino)ethan-1-ol] | 0.47 | 0.086 | –
2 | CC(C)n1cnc2c(NCc3ccc(-c4cccnc4)nc3)nc(-c3ccnc(F)c3)nc21 [Example 29, N-([2,3′-bipyridin]-5-ylmethyl)-2-(2-fluoropyridin-4-yl)-9-isopropyl-9H-purin-6-amine] | 1.72 | 0.164 | –
3 | CC(C)n1cnc2c(NCc3ccc(-c4cccnc4)nc3)nc(-c3cn[nH]c3)nc21 [Example 23, N-([2,3′-bipyridin]-5-ylmethyl)-9-isopropyl-2-(1H-pyrazol-4-yl)-9H-purin-6-amine] | 1.99 | 1.43 | –
4 | CC(C)n1cnc2c(NCc3ccc(-c4cccnc4)nc3)nc(-c3ccc(N)cc3)nc21 [Example 27, N-([2,3′-bipyridin]-5-ylmethyl)-2-(4-aminophenyl)-9-isopropyl-9H-purin-6-amine] | 0.813 | 0.15 | –
5 | CC(C)n1cnc2c(NCc3ccc(-c4cccnc4)nc3)nc(-c3ccc(NCCCO)nc3)nc21 [Example 36, 3-((5-(6-(([2,3′-bipyridin]-5-ylmethyl)amino)-9-isopropyl-9H-purin-2-yl)pyridin-2-yl)amino)propan-1-ol] | 1.18 | 0.304 | –
6 | CC(C)n1cnc2c(NCc3ccc(-c4cccnc4)nc3)nc(-c3ccnc(NCCCO)c3)nc21 [Example 38, 3-((4-(6-(([2,3′-bipyridin]-5-ylmethyl)amino)-9-isopropyl-9H-purin-2-yl)pyridin-2-yl)amino)propan-1-ol] | 0.479 | 0.113 | –
7 | CC(C)n1cnc2c(NCc3ccc(-c4cccnc4)nc3)nc(N3CCOC[C@H]3CCO)nc21 [Example 63, (R)-2-(4-(6-(([2,3′-bipyridin]-5-ylmethyl)amino)-9-isopropyl-9H-purin-2-yl)morpholin-3-yl)ethan-1-ol] | – | – | 0.168
8 | CC(C)n1cnc2c(NCc3ccc(-c4cccnc4)nc3)nc(-c3cccc(NCCCO)c3)nc21 [Example 33, 3-((3-(6-(([2,3′-bipyridin]-5-ylmethyl)amino)-9-isopropyl-9H-purin-2-yl)phenyl)amino)propan-1-ol] | 0.724 | 0.257 | –
9 | CC(C)n1cnc2c(NCc3ccc(-c4cccnc4)nc3)nc(-c3cnc(N)nc3)nc21 [Example 21, N-([2,3′-bipyridin]-5-ylmethyl)-2-(2-aminopyrimidin-5-yl)-9-isopropyl-9H-purin-6-amine] | – | 0.087 | –
10 | CC(C)n1cnc2c(NCc3ccc(-c4ccccn4)cn3)nc(-c3ccc(N)nc3)nc21 [Example 45, N-([2,3′-bipyridin]-6′-ylmethyl)-2-(6-aminopyridin-3-yl)-9-isopropyl-9H-purin-6-amine] | 0.169 | 0.221 | –
11 | CCn1cnc2c(NCc3ccc(-c4cccnc4)nc3)nc(-c3cccnc3)nc21 [Example 46, N-([2,3′-bipyridin]-5-ylmethyl)-9-ethyl-2-(pyridin-3-yl)-9H-purin-6-amine] | 0.217 | 0.016 | –
12 | CC(C)n1cnc2c(NCc3ccc(-c4cccnc4)nc3)nc(-c3ccn[nH]3)nc21 [Example 22, N-([2,3′-bipyridin]-5-ylmethyl)-9-isopropyl-2-(1H-pyrazol-5-yl)-9H-purin-6-amine] | 1.72 | 0.501 | –
13 | COc1cncc(-c2nc(NCc3ccc(-c4ccccn4)cn3)c3ncn(C(C)C)c3n2)c1 [Example 44, N-([2,3′-bipyridin]-6′-ylmethyl)-9-isopropyl-2-(5-methoxypyridin-3-yl)-9H-purin-6-amine] | – | 1.53 | –
14 | CCn1cnc2c(NCc3ccc(-c4ccnc(C)c4)nc3)nc(-c3ccc4[nH]c(=O)[nH]c4c3)nc21 [Example 52, 5-(9-ethyl-6-(((2′-methyl-[2,4′-bipyridin]-5-yl)methyl)amino)-9H-purin-2-yl)-1,3-dihydro-2H-benzo[d]imidazol-2-one] | – | – | 0.635
